Values quoted from earlier work in US5028692A, “Gastrin releasing peptide antagonist” (Merck & Co., Inc., priority 1989, dated 1991).
Peptide text beside a SMILES is read from it.

Legend:
[1] = tested on: bombesin-stimulated growth

Row | Compound | inhibition of clonal and mass culture growth (SCLC cell lines) | inhibition of bombesin-stimulated growth [1]
1 | CSCC[C@H](NC(=O)[C@H](CC(C)C)NC(=O)CNC(=O)[C@H](Cc1ccc(O)cc1)NC(=O)[C@H](Cc1ccccc1)NC(=O)[C@H](CCCCN)NC(=O)[C@H](CC(N)=O)NC(=O)[C@@H]1CCCN1C(=O)[C@H](CC(=O)O)NC(=O)[C@H](C)NC(=O)[C@@H]1CCC(=O)N1)C(N)=O [physalaemin] (HELM PEPTIDE1{[Glp].A.D.P.N.K.F.Y.G.L.M.[am]}$$$$V2.0) | inhibits the clonal and mass culture growth of SCLC cell lines at picomolar concentrations | 
2 | [Leu^14 -.PSI.-CH2 NH-Leu^13 ] bombesin |  | potent inhibitor
